Measured values reported in patent US20090291942A1, “IMIDAZO PYRIDINE DERIVATIVES” (priority 2008, published 2009).
Counter-ions that a name gives are not always drawn.

Target: T1, human GPR4 (Homo sapiens, UniProt P46093)
T1 construct: expressed in transfected cells
Assay: Cell-based assay for human GPR4 activity (pH-induced cAMP formation, HTRF)
Conditions: HeLa cells stably expressing human GPR4, pH-induced cAMP formation
Method: a) Cell-Based Assay for Human GPR4 Activity
HeLa cells stably expressing human GPR4 were established by transfecting the cells with a construct containing the human GPR4 coding sequence. The cells were grown in DMEM/HAM's F12 medium supplemented with 10% fetal calf serum (FCS), 100 u/ml penicillin, 100 μg/ml streptomycin and 400 μg/ml G418 and 10 mM Hepes pH 8.0. pH-induced formation of cAMP was determined using the HTRF technology as provided by CisBio Inc. The cells were seeded in 384-well plates and cultured for 24 hours at 37° C., 5% CO2 before performing the assay. Medium was removed and 10 μl buffer A (HBS, 10 mM Hepes, pH 8, 2 mM IBMX) was added. For compound testing, buffer A with 2× concentrated compounds was used. Cells were incubated for 15 min at room temperature. 10 μl buffer B (HBS, 30 mM Hepes, specific pH) was added to reach the appropriate final pH for stimulation (see below) and incubation was continued for 15 min at room temperature. […] HBS: 130 mM NaCl, 0.9 mM NaH2PO4, 5.4 mM KCl, 0.8 mM MgSO4, CaCl2 1.8 mM, 25 mM glucose, 10-30 mM Hepes. Adjustment of HBS buffers: Bf A Bf B Final stimulation pH (1 volume buffer A+1 volume buffer B)
Compounds were diluted from fresh stock solutions at 10 mM in DMSO to 2 mM and then used for serial dilutions in DMSO.

T1 sequence (P46093 whole entry): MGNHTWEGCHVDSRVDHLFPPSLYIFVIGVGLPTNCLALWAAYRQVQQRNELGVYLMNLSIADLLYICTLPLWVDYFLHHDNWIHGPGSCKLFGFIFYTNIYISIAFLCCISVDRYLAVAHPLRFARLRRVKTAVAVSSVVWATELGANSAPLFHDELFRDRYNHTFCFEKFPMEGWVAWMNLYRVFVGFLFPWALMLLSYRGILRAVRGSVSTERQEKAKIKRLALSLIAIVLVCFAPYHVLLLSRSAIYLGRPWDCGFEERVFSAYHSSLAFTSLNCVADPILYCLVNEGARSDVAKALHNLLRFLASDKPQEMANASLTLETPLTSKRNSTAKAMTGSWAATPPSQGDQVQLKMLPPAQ

| IC50 | SMILES |
| --- | --- |
| 367 nM | CCc1nc2c(C)cc(C)nc2n1Cc1ccc(/C=C/CN2CCN(CCCOC)CC2)cc1 [Example 64, 2-Ethyl-3-(4-{(E)-3-[4-(3-methoxy-propyl)-piperazin-1-yl]-propenyl}-benzyl)-5,7-dimethyl-3H-imidazo[4,5-b]pyridine dihydrochloride] |
| 647 nM | CCc1nc2c(C)cc(C)nc2n1Cc1ccc(/C=C/CN2CCN(CC(=O)N(C)C)CC2)cc1 [Example 65, 2-(4-{(E)-3-[4-(2-Ethyl-5,7-dimethyl-imidazo[4,5-b]pyridin-3-ylmethyl)-phenyl]-allyl}-piperazin-1-yl)-N,N-dimethyl-acetamide] |
| 222 nM | CCc1nc2c(C)cc(C)nc2n1Cc1ccc(/C=C/CN2CCN(CCN3CCOCC3)CC2)cc1 [Example 66, 2-Ethyl-5,7-dimethyl-3-(4-{(E)-3-[4-(2-morpholin-4-yl-ethyl)-piperazin-1-yl]-propenyl}-benzyl)-3H-imidazo[4,5-b]pyridine trihydrochloride] |
| 407 nM | CCc1nc2c(C)cc(C)nc2n1Cc1ccc(/C=C/CN2CCN(Cc3ccc(OC)c(OC)c3)CC2)cc1 [Example 67, 3-(4-{(E)-3-[4-(3,4-Dimethoxy-benzyl)-piperazin-1-yl]-propenyl}-benzyl)-2-ethyl-5,7-dimethyl-3H-imidazo[4,5-b]pyridine trihydrochloride] |
| 535 nM | CCc1nc2c(C)cc(C)nc2n1Cc1ccc(/C=C/CN2CCN(CCCF)CC2)cc1 [Example 68, 2-Ethyl-3-(4-{(E)-3-[4-(3-fluoro-propyl)-piperazin-1-yl]-propenyl}-benzyl)-5,7-dimethyl-3H-imidazo[4,5-b]pyridine] |
| 201 nM | CCc1nc2c(C)cc(C)nc2n1Cc1ccc(/C=C/CN2CCN(CC)C(C)C2)cc1 (stereo not drawn) [Example 69, 2-Ethyl-3-{4-[(E)-3-(4ethyl-3-methyl-piperazin-1-yl)-propenyl]-benzyl}-5,7-dimethyl-3H-imidazo[4,5-b]pyridine dihydrochloride] |
| 496 nM | CCc1nc2c(C)cc(C)nc2n1Cc1ccc(/C=C/CN2CCN(C)C[C@@H]2C(C)C)cc1 [Example 70, 2-Ethyl-3-{4-[(E)-3-((S)-2-isopropyl-4-methyl-piperazin-1-yl)-propenyl]-benzyl}-5,7-dimethyl-3H-imidazo[4,5-b]pyridine dihydrochloride] |
| 530 nM | CCc1nc2c(C)cc(C)nc2n1Cc1ccc(/C=C/CN2CCN(C(C)C)C(C)C2)cc1 (stereo not drawn) [Example 71, 2-Ethyl-3-{4-[(E)-3-(4-isopropyl-3-methyl-piperazin-1-yl)-propenyl]-benzyl}-5,7-dimethyl-3H-imidazo[4,5-b]pyridine] |
| 452 nM | CCc1nc2c(C)cc(C)nc2n1Cc1ccc(/C=C/CN2CCN(C(C)C)C(CC)C2)cc1 (stereo not drawn) [Example 72, 2-Ethyl-3-{4-[(E)-3-(3-ethyl-4-isopropyl-piperazin-1-yl)-propenyl]-benzyl}-5,7-dimethyl-3H-imidazo[4,5-b]pyridine dihydrochloride] |
| 887 nM | CCc1nc2c(C)cc(C)nc2n1Cc1ccc(/C=C/CN2CCN3CCCC3C2C)cc1 (stereo not drawn) [Example 73, 2-Ethyl-5,7-dimethyl-3-{4-[(E)-3-(1-methyl-hexahydro-pyrrolo[1,2-a]pyrazin-2-yl)-propenyl]-benzyl}-3H-imidazo[4,5-b]pyridine dihydrochloride] |
| 323 nM | CCc1nc2c(C)cc(C)nc2n1Cc1ccc(/C=C/CN2C[C@H]3C[C@@H]2CN3CC)cc1 [Example 74, 2-Ethyl-3-{4-[(E)-3-((1R,4R)-5-ethyl-2,5-diaza-bicyclo[2.2.1]hept-2-yl)-propenyl]-benzyl}-5,7-dimethyl-3H-imidazo[4,5-b]pyridine] |
| 146 nM | CCc1nc2c(C)cc(C)nc2n1Cc1ccc(/C=C/CN2C[C@H]3C[C@@H]2CN3CC(C)C)cc1 [Example 75, 2-Ethyl-3-{4-[(E)-3-((1R,4R)-5-isobutyl-2,5-diaza-bicyclo[2.2.1]hept-2-yl)-propenyl]-benzyl}-5,7-dimethyl-3H-imidazo[4,5-b]pyridine dihydrochloride] |
| 111 nM | CCc1nc2c(C)cc(C)nc2n1Cc1ccc(/C=C/CN2C[C@H]3C[C@@H]2CN3CC2CC2)cc1 [Example 76, 3-{4-[(E)-3-((1R,4R)-5-Cyclopropylmethyl-2,5-diaza-bicyclo[2.2.1]hept-2-yl)-propenyl]-benzyl}-2-ethyl-5,7-dimethyl-3H-imidazo[4,5-b]pyridine trihydrochloride] |
| 512 nM | CCc1nc2c(C)cc(C)nc2n1Cc1ccc(/C=C/CN2CCOC(CNC(=O)OC(C)(C)C)C2)cc1 (stereo not drawn) [Example 77, (4-{(E)-3-[4-(2-Ethyl-5,7-dimethyl-imidazo[4,5-b]pyridin-3-ylmethyl)-phenyl]-allyl}-morpholin-2-ylmethyl)-carbamic acid tert-butyl ester] |
| 114 nM | CCc1nc2c(C)cc(C)nc2n1Cc1ccc(/C=C/CN2CCOC(CN)C2)cc1 (stereo not drawn) [Example 78, C-(4-{(E)-3-[4-(2-Ethyl-5,7-dimethyl-imidazo[4,5-b]pyridin-3-ylmethyl)-phenyl]-allyl}-morpholin-2-yl)-methylamine dihydrochloride] |
| 194 nM | CCc1nc2c(C)cc(C)nc2n1Cc1ccc(/C=C/CN2CCOC(CNC(C)C)C2)cc1 (stereo not drawn) [Example 79, (4-{(E)-3-[4-(2-Ethyl-5,7-dimethyl-imidazo[4,5-b]pyridin-3-ylmethyl)-phenyl]-allyl}-morpholin-2-ylmethyl)-isopropyl-amine] |
| 485 nM | CCc1nc2c(C)cc(C)nc2n1Cc1ccc(/C=C/Cn2ccnc2)cc1 [Example 80, 2-Ethyl-3-[4-((E)-3-imidazol-1-yl-propenyl)-benzyl]-5,7-dimethyl-3H-imidazo[4,5-b]pyridine hydrochloride] |
| 455 nM | CCCc1nc2c(C)cc(C)nc2n1Cc1ccc(/C=C/CN2CCC(N3CCCCC3)CC2)cc1 [Example 82, 1′-{(E)-3-[4-(5,7-Dimethyl-2-propyl-imidazo[4,5-b]pyridin-3-ylmethyl)-phenyl]-allyl}-[1,4′]bipiperidine dihydrochloride] |
| 294 nM | Cc1cc(C)c2nc(C(C)C)n(Cc3ccc(/C=C/CN4CCC(N5CCCCC5)CC4)cc3)c2n1 [Example 83, 1′-{(E)-3-[4-(2-Isopropyl-5,7-dimethyl-imidazo[4,5-b]pyridin-3-ylmethyl)-phenyl]-allyl}-[1,4′]bipiperidinyl dihydrochloride] |
| 181 nM | Cc1cc(C)c2nc(C3CC3)n(Cc3ccc(/C=C/CN4CCN(C(C)C)CC4)cc3)c2n1 [Example 84, 2-Cyclopropyl-3-{4-[(E)-3-(4-isopropyl-piperazin-1-yl)-propenyl]-benzyl}-5,7-dimethyl-3H-imidazo[4,5-b]pyridine dihydrochloride] |
| 834 nM | CCCCc1nc2c(C)cc(C)nc2n1Cc1ccc(/C=C/CN2CCN(C(C)C)CC2)cc1 [Example 85, 2-Butyl-3-{4-[(E)-3-(4-isopropyl-piperazin-1-yl)-propenyl]-benzyl}-5,7-dimethyl-3H-imidazo[4,5-b]pyridine dihydrochloride] |
| 481 nM | CCCCc1nc2c(C)cc(C)nc2n1Cc1ccc(/C=C/CN2CCC(N3CCCCC3)CC2)cc1 [Example 86, 1′-{(E)-3-[4-(2-Butyl-5,7-dimethyl-imidazo[4,5-b]pyridin-3-ylmethyl)-phenyl]-allyl}-[1,4′]bipiperidine dihydrochloride] |
| 296 nM | Cc1cc(C)c2nc(C(F)(F)F)n(Cc3ccc(/C=C/CN4CCC(N5CCCCC5)CC4)cc3)c2n1 [Example 87, 1′-{(E)-3-[4-(5,7-Dimethyl-2-trifluoromethyl-imidazo[4,5-b]pyridin-3-ylmethyl)-phenyl]-allyl}-[1,4′]bipiperidinyl dihydrochloride] |
| 199 nM | Cc1cc(C)c2nc(C(F)(F)F)n(Cc3ccc(/C=C/CN4CCC(N5CCN(C)CC5)CC4)cc3)c2n1 [Example 88, 5,7-Dimethyl-3-(4-{(E)-3-[4-(4-methyl-piperazin-1-yl)-piperidin-1-yl]-propenyl}-benzyl)-2-trifluoromethyl-3H-imidazo[4,5-b]pyridine trihydrochloride] |
| 182 nM | Cc1cc(C)c2nc(C(F)(F)F)n(Cc3ccc(/C=C/CN4CCC(N5CCOCC5)CC4)cc3)c2n1 [Example 89, 5,7-Dimethyl-3-{4-[(E)-3-(4-morpholin-4-yl-piperidin-1-yl)-propenyl]-benzyl}-2-trifluoromethyl-3H-imidazo[4,5-b]pyridine dihydrochloride] |
| 568 nM | COC(=O)C1CCN(C/C=C/c2ccc(Cn3c(C(F)(F)F)nc4c(C)cc(C)nc43)cc2)CC1 [Example 90, 1-{(E)-3-[4-(5,7-Dimethyl-2-trifluoromethyl-imidazo[4,5-b]pyridin-3-ylmethyl)-phenyl]-allyl}-piperidine-4-carboxylic acid methyl ester hydrochloride] |
| 140 nM | Cc1cc(C)c2nc(C(F)(F)F)n(Cc3ccc(/C=C/CN4CCN(C(C)C)CC4)cc3)c2n1 [Example 91, 3-{4-[(E)-3-(4-Isopropyl-piperazin-1-yl)-propenyl]-benzyl}-5,7-dimethyl-2-trifluoromethyl-3H-imidazo[4,5-b]pyridine dihydrochloride] |
